ChEMBL document CHEMBL3994622, “Design and synthesis of new RAF kinase-inhibiting antiproliferative quinoline derivatives. Part 2: Diarylurea derivatives” (Eur J Med Chem, 2017)

Assays:
[1] = molecular target: RAC-alpha serine/threonine-protein kinase (Homo sapiens) (UniProt P31749); test: Inhibition of human AKT1 at 10 uM using KGSGSGRPRTSSFAEG as substrate in presence of [33P]ATP by Hotspot assay relative to control
[2] = tested on: EKVX; test: Growth inhibition of human EKVX cells assessed as cell growth at 0.03 uM incubated for 48 hrs by sulforhodamine B assay relative to control; format: functional; settings: read-out: Activity
[3] = molecular target: Mitogen-activated protein kinase 14 (Homo sapiens) (UniProt Q16539); test: Inhibition of human MAPK p38allpha at 10 uM using myelin basic protein as substrate in presence of [33P]ATP by Hotspot assay relative to control
[4] = molecular target: Platelet-derived growth factor receptor beta (Homo sapiens) (UniProt P09619); test: Inhibition of human PDGFRbeta at 10 uM using poly[Glu:Tyr] (4:1) as substrate in presence of [33P]ATP by Hotspot assay relative to control
[5] = tested on: HCT-15; test: Growth inhibition of human HCT15 cells assessed as cell growth at 100 uM incubated for 48 hrs by sulforhodamine B assay relative to control; format: functional; settings: HCT-15, 48 h, read-out: Activity
[6] = tested on: SF-268; test: Growth inhibition of human SF268 cells assessed as cell growth at 100 uM incubated for 48 hrs by sulforhodamine B assay relative to control; format: functional; settings: SF-268, 48 h, read-out: Activity
[7] = tested on: MDA-MB-468; test: Growth inhibition of human MDA-MB-468 cells assessed as cell growth at 10 uM incubated for 48 hrs by sulforhodamine B assay relative to control; format: functional; settings: MDA-MB-468, 48 h, read-out: Activity
[8] = tested on: MDA-MB-468; test: Growth inhibition of human MDA-MB-468 cells assessed as cell growth at 0.1 uM incubated for 48 hrs by sulforhodamine B assay relative to control; format: functional; settings: MDA-MB-468, 48 h, read-out: Activity
[9] = tested on: RPMI-8226; test: Growth inhibition of human RPMI8226 cells assessed as cell growth at 0.005 uM incubated for 48 hrs by sulforhodamine B assay relative to control; format: functional; settings: RPMI-8226, 48 h, read-out: Activity
[10] = tested on: SK-OV-3; test: Growth inhibition of human SKOV3 cells assessed as cell growth at 5 uM incubated for 48 hrs by sulforhodamine B assay relative to control; format: functional; settings: SK-OV-3, 48 h, read-out: Activity
[11] = tested on: M14; test: Growth inhibition of human M14 cells assessed as cell growth at 0.05 uM incubated for 48 hrs by sulforhodamine B assay relative to control; format: functional; settings: M14, 48 h, read-out: Activity
[12] = tested on: OVCAR-3; test: Growth inhibition of human OVCAR3 cells assessed as cell growth at 0.5 uM incubated for 48 hrs by sulforhodamine B assay relative to control; format: functional; settings: OVCAR-3, 48 h, read-out: Activity
[13] = tested on: SF-539; test: Growth inhibition of human SF539 cells assessed as cell growth at 5 uM incubated for 48 hrs by sulforhodamine B assay relative to control; format: functional; settings: SF-539, 48 h, read-out: Activity
[14] = tested on: ACHN; test: Growth inhibition of human ACHN cells assessed as cell growth at 0.005 uM incubated for 48 hrs by sulforhodamine B assay relative to control; format: functional; settings: read-out: Activity
[15] = tested on: SN12C; test: Growth inhibition of human SN12C cells assessed as cell growth at 5 uM incubated for 48 hrs by sulforhodamine B assay relative to control; format: functional; settings: read-out: Activity
[16] = tested on: RXF 393; test: Growth inhibition of human RXF393 cells assessed as cell growth at 0.005 uM incubated for 48 hrs by sulforhodamine B assay relative to control; format: functional; settings: RXF 393, 48 h, read-out: Activity
[17] = tested on: SK-OV-3; test: Growth inhibition of human SKOV3 cells assessed as cell growth at 50 uM incubated for 48 hrs by sulforhodamine B assay relative to control; format: functional; settings: SK-OV-3, 48 h, read-out: Activity
[18] = tested on: IGROV-1; test: Growth inhibition of human IGROV1 cells assessed as cell growth at 0.005 uM incubated for 48 hrs by sulforhodamine B assay relative to control; format: functional; settings: IGROV-1, 48 h, read-out: Activity
[19] = tested on: BT-549; test: Growth inhibition of human BT549 cells assessed as cell growth at 50 uM incubated for 48 hrs by sulforhodamine B assay relative to control; format: functional; settings: BT-549, 48 h, read-out: Activity
[20] = tested on: MDA-MB-231; test: Growth inhibition of human MDA-MB-231 cells assessed as cell growth at 0.5 uM incubated for 48 hrs by sulforhodamine B assay relative to control; format: functional; settings: MDA-MB-231, 48 h, read-out: Activity
[21] = tested on: SR; test: Growth inhibition of human SR cells assessed as cell growth at 0.5 uM incubated for 48 hrs by sulforhodamine B assay relative to control; format: functional; settings: read-out: Activity
[22] = tested on: NCI/ADR-RES; test: Growth inhibition of human NCI/ADR-RES cells assessed as cell growth at 0.005 uM incubated for 48 hrs by sulforhodamine B assay relative to control; format: functional; settings: read-out: Activity
[23] = tested on: MDA-MB-435; test: Growth inhibition of human MDA-MB-435 cells assessed as cell growth at 50 uM incubated for 48 hrs by sulforhodamine B assay relative to control; format: functional; settings: MDA-MB-435, 48 h, read-out: Activity
[24] = tested on: Hs-578T; test: Growth inhibition of human Hs 578T cells assessed as cell growth at 5 uM incubated for 48 hrs by sulforhodamine B assay relative to control; format: functional; settings: read-out: Activity
[25] = tested on: HOP-92; test: Growth inhibition of human HOP92 cells assessed as cell growth at 0.005 uM incubated for 48 hrs by sulforhodamine B assay relative to control; format: functional; settings: HOP-92, 48 h, read-out: Activity
[26] = tested on: U-251; test: Growth inhibition of human U251 cells assessed as cell growth at 0.05 uM incubated for 48 hrs by sulforhodamine B assay relative to control; format: functional; settings: U-251, 48 h, read-out: Activity
[27] = tested on: M14; test: Growth inhibition of human M14 cells assessed as cell growth at 0.5 uM incubated for 48 hrs by sulforhodamine B assay relative to control; format: functional; settings: M14, 48 h, read-out: Activity
[28] = tested on: NCI-H522; test: Growth inhibition of human NCI-H522 cells assessed as cell growth at 0.5 uM incubated for 48 hrs by sulforhodamine B assay relative to control; format: functional; settings: NCI-H522, 48 h, read-out: Activity
[29] = tested on: SF-295; test: Growth inhibition of human SF295 cells assessed as cell growth at 0.05 uM incubated for 48 hrs by sulforhodamine B assay relative to control; format: functional; settings: SF-295, 48 h, read-out: Activity
[30] = tested on: UACC-62; test: Growth inhibition of human UACC62 cells assessed as cell growth at 5 uM incubated for 48 hrs by sulforhodamine B assay relative to control; format: functional; settings: UACC-62, 48 h, read-out: Activity
[31] = tested on: UO-31; test: Growth inhibition of human UO31 cells assessed as cell growth at 0.05 uM incubated for 48 hrs by sulforhodamine B assay relative to control; format: functional; settings: UO-31, 48 h, read-out: Activity
[32] = tested on: 786-0; test: Growth inhibition of human 786-0 cells assessed as cell growth at 50 uM incubated for 48 hrs by sulforhodamine B assay relative to control; format: functional; settings: 786-0, 48 h, read-out: Activity
[33] = tested on: MDA-MB-468; test: Growth inhibition of human MDA-MB-468 cells assessed as cell growth at 0.003 uM incubated for 48 hrs by sulforhodamine B assay relative to control; format: functional; settings: MDA-MB-468, 48 h, read-out: Activity

Chain of RAC-alpha serine/threonine-protein kinase (Homo sapiens) (P31749 whole entry): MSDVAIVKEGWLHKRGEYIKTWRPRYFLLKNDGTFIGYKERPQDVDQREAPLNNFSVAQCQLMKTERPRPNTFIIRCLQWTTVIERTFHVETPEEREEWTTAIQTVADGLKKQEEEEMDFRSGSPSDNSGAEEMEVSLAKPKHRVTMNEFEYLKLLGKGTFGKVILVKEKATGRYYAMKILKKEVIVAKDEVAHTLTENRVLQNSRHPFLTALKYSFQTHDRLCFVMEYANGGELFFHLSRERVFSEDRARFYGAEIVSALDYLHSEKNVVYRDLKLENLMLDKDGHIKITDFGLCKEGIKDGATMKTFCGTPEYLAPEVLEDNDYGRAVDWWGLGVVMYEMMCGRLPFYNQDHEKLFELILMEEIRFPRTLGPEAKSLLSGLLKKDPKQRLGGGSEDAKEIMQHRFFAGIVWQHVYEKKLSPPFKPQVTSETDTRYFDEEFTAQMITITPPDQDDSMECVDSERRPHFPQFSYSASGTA
Chain of Mitogen-activated protein kinase 14 (Homo sapiens) (Q16539 whole entry): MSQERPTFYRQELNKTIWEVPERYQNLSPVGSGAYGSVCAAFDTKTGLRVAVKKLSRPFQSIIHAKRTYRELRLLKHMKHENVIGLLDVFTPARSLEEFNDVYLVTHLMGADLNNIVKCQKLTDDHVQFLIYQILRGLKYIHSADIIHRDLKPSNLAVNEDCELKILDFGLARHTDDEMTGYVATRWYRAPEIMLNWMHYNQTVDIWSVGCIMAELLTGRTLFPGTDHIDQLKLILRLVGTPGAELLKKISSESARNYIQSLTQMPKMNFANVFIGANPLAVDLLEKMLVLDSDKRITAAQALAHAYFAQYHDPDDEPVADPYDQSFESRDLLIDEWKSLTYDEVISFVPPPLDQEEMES
Chain of Platelet-derived growth factor receptor beta (Homo sapiens) (P09619 whole entry): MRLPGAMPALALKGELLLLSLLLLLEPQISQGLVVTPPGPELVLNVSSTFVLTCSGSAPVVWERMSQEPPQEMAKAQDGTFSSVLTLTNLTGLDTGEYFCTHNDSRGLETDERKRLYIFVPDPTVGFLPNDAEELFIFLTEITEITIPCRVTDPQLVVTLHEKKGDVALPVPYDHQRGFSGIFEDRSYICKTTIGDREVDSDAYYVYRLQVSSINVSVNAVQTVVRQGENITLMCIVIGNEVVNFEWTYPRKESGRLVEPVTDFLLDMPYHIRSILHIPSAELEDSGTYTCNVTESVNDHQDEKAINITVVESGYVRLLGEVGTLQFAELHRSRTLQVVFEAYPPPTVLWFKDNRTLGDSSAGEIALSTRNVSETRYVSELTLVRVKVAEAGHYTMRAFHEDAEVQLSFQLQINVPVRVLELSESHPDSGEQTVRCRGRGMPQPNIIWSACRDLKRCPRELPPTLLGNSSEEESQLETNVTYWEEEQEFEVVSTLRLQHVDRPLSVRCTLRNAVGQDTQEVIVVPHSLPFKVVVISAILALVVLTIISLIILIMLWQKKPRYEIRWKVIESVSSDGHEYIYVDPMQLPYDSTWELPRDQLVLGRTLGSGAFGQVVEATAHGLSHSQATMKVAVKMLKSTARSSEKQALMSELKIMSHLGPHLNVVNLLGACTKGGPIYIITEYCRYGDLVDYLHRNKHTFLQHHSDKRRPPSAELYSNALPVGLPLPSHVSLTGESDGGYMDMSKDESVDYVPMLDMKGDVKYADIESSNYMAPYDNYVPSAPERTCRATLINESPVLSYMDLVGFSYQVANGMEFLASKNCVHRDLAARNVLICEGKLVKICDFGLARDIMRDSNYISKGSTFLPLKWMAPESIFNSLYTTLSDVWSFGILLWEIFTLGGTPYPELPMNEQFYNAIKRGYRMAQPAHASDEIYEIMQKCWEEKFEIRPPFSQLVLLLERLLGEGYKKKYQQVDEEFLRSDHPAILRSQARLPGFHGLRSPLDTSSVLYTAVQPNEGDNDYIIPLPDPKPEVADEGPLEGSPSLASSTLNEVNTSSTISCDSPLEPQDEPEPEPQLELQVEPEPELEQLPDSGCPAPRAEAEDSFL

SMILES: COc1cc2cc(Oc3ccc(NC(=O)Nc4ccc(Cl)c(C(F)(F)F)c4)cc3)c(C)nc2cc1OC
- inhibition [1]: 0.06%
- growth at 0.03 µM [2]: 97%
- inhibition [3]: 56.4%
- inhibition [4]: 29.5%

SMILES: COc1cc2cc(Oc3ccc(NC(=O)Nc4cc(C(F)(F)F)cc(C(F)(F)F)c4)cc3)c(C)nc2cc1OC
- growth at 100 µM [5]: -88%
- growth at 100 µM [6]: -71%
- growth at 10 µM [7]: -36%
- growth at 0.1 µM [8]: 104%

SMILES: COc1cc2cc(Oc3ccc(NC(=O)Nc4cccc(C(F)(F)F)c4)cc3)c(C)nc2cc1OC
- growth at 0.005 µM [9]: 103%
- growth at 5 µM [10]: 18%
- growth at 0.05 µM [11]: 84%
- growth at 0.5 µM [12]: 105%
- growth at 5 µM [13]: 26%
- growth at 0.005 µM [14]: 97%
- growth at 5 µM [15]: 22%
- growth at 0.005 µM [16]: 94%
- growth at 50 µM [17]: -37%
- growth at 0.005 µM [18]: 101%
- growth at 50 µM [19]: -69%
- growth at 0.5 µM [20]: 81%
- growth at 0.5 µM [21]: 91%
- growth at 0.005 µM [22]: 105%
- growth at 50 µM [23]: -29%
- growth at 5 µM [24]: -8%
- growth at 0.005 µM [25]: 96%
- growth at 0.05 µM [26]: 99%
- growth at 0.5 µM [27]: 90%
- growth at 0.5 µM [28]: 90%
- growth at 0.05 µM [29]: 91%
- growth at 5 µM [30]: 22%
- growth at 0.05 µM [31]: 91%
- growth at 50 µM [32]: -33%

SMILES: Cc1nc2cc(O)c(O)cc2cc1Oc1ccc(NC(=O)Nc2ccc(Cl)c(Cl)c2)cc1
- growth at 0.003 µM [33]: 100%
